Measured values: patent publication US9023878B2 (Neurophyxia B.V., priority 2010, dated 2015)
Where “and” joins values, the source holds several entries; their conditions need not be identical. Equal values may be shown once. Marks after values point to notes of the source that are not given here.

Assays:
[1] = Surfactants: stepwise solubility in surfactant solutions in 5% dextrose; assay type: physicochemical; conditions: nominal 1.6 mg/ml, without addition of acid
Protocol: Stock solutions of the surfactant were prepared in 5% dextrose.

[2] = Text: Necropsy took place approximately one hour after the second injection. Blood and brain samples were collected for both the mother and fetuses.
[3] = Solubility of 2-IB in 10% SBE-CD at different pH adjusted with 0.1 M citric acid (HPLC); assay type: physicochemical
Protocol: The experimental steps are shown as below.
1. Weigh 0.5 g of SBE-CD into 10 ml glass vial
2. Add 3 ml WFI into each vial to dissolve SBE-CD
4. Magnetic stirring for 1 h
5. Adjust pH to target pH with 0.1 M citric acid
6. Determine the weight of 0.1 M citric acid added
7. Add WFI to total weight of 5 g
8. Measure pH again after 1 hour stirring
9. Filtrate through the formulation through PVDF 0.22 um filter

[4] = Formulation preparation: dissolution and titration to higher pH; assay type: physicochemical; conditions: 1.5 mg/g of 2-IB at pH 7.0, overnight stirring
Text: This might be due to the different approaches for the solubility testing and the formulation preparation. […] The six formulations were all transparent and colorless solutions.
It is not feasible to increase the solubility by preparing a formulation at a low pH first and then titrate to a high pH.

[5] = Visual inspection after 12 hours storage at 5° C.; assay type: physicochemical
piglets = conditions: versus allopurinol or deferoxamine; cited from earlier work
[6] = Physical stability of saturated 10% SBE-CD solutions, 5 days at 5° C. and RT; assay type: physicochemical; conditions: saturated solution; also: key: −: Precipitation of 2-IB; +: no precipitation
[7] = Solubility in citrate buffers (excess 2-IB, filtered, RP-HPLC); assay type: physicochemical
Protocol: An excess of 2-IB was added to citrate buffers, mixed at room temperature and then filtered to remove nonsolubilised 2-IB.

[8] = Solubility/encapsulation in cyclodextrin solutions (excess 2-IB, three days, filtered, RP-HPLC)
Protocol: An excess of 2-IB was added to the cyclodextrin solutions, mixed at room temperature for three days and then filtered to remove non-encapsulated) non-solubilised 2-IB.

[9] = average of 4 litters, maternal dose 55 mg/kg sc, 55 mg/kg
[10] = average of 4 maternal rats, 55 mg/kg sc, 55 mg/kg
[11] = pooled female fetuses per maternal rat, maternal dose 55 mg/kg sc, 55 mg/kg
[12] = pooled male fetuses per maternal rat, maternal dose 55 mg/kg sc, 55 mg/kg

N=C1N[C@H]2[C@H](CS[C@H]2CCCCC(=O)O)N1 [Formulation 2-IB, 2-iminobiotin]
solubility, visually judged [1]: did not dissolve in any of the surfactant solutions
mortality of maternal animals ([2]; 55 mg/kg sc, Day 20 post-coitum): No mortality occurred
2-IB concentration in brain, female fetuses, average (±SD) [2, 9]: 369 ng/g and 369 (±72) ng/g
2-IB concentration in brain, male fetuses, average (±SD) [2, 9]: 329 ng/g and 329 (±72) ng/g
2-IB plasma concentration, female fetuses, average (±SD) [2, 9]: 1,903 ng/mL and 1,903 (±437) ng/mL
2-IB plasma concentration, male fetuses, average (±SD) [2, 9]: 1,765 ng/mL and 1,765 (±259) ng/mL
2-IB concentration in brain, maternal, average (±SD) [2, 10]: 268 ng/g and 268 (±92) ng/g
2-IB plasma concentration, maternal, average (±SD) [2, 10]: 10,039 ng/mL and 10,039 (±3371) ng/mL
2-IB concentration in brain sample, maternal ([2]; individual maternal Wistar rats, 55 mg/kg sc, 55 mg/kg): 151 ng/g and 375 ng/g and 270 ng/g and 276 ng/g
2-IB plasma concentration, maternal ([2]; individual maternal Wistar rats, Day 20 post-coitum, 2 sc injections of 27.5 mg/kg, approximately one hour after second injection, 27.5 mg/kg): 7,104 ng/mL and 14,185 ng/mL and 7,490 ng/mL and 11,378 ng/mL
2-IB concentration in brain sample, pooled fetuses (females) [2, 11]: 474 (n = 3) ng/g and 317 (n = 8) ng/g and 329 (n = 4) ng/g and 356 (n = 7) ng/g
2-IB plasma concentration, pooled fetuses (females) [2, 11]: 2,442* (n = 3) ng/mL and 2,063 (n = 8) ng/mL and 1,474 (n = 4) ng/mL and 1,634 (n = 7) ng/mL
2-IB concentration in brain sample, pooled fetuses (males) [2, 12]: 287 (n = 8) ng/g and 435 (n = 4) ng/g and 283 (n = 5) ng/g and 309 (n = 8) ng/g
2-IB plasma concentration, pooled fetuses (males) [2, 12]: 1,868 (n = 8) ng/mL and 2,080 (n = 4) ng/mL and 1,598 (n = 5) ng/mL and 1,512 (n = 8) ng/mL
transfer over the placenta and the blood-brain barrier ([2]; two sc injections, total dose level 55 mg/kg): confirmed
Solubility of 2-IB ([3]; pH 4.0): 13.08 mg/g
Solubility of 2-IB ([3]; pH 4.5): 9.00 mg/g
Solubility of 2-IB ([3]; pH 5.0): 5.2 mg/g and 5.21 mg/g
Solubility of 2-IB ([3]; pH 5.1): 5.30 mg/g
Solubility of 2-IB ([3]; pH 5.5): 3.29 mg/g
Solubility of 2-IB ([3]; pH 6.2): 1.94 mg/g
Solubility of 2-IB ([3]; pH 7.0): 1.71 mg/g
dissolution on formulation preparation [4]: did not dissolve completely after overnight stirring
Appearance after 12 hours at 5° C. ([5]; saturated in 50 mM Citrate pH 3.0): Precipitated
Appearance after 12 hours at 5° C. ([5]; saturated in 50 mM Citrate pH 3.5): Precipitated
Appearance after 12 hours at 5° C. ([5]; saturated in 50 mM Citrate pH 4.0): Precipitated
Appearance after 12 hours at 5° C. ([5]; saturated in 50 mM Citrate pH 4.5): Precipitated
Appearance after 12 hours at 5° C. ([5]; saturated in 50 mM Citrate pH 5.0): Precipitated
effectiveness in preventing and/or treating effects of perinatal asphyxia (piglets): more effective
5 days at 5° C. ([6]; pH 4.0): −
5 days at RT ([6]; pH 4.0): +
5 days at 5° C. ([6]; pH 4.5): −
5 days at RT ([6]; pH 4.5): +
5 days at 5° C. ([6]; pH 5.0): −
5 days at RT ([6]; pH 5.0): +
5 days at 5° C. ([6]; pH 5.1): −
5 days at RT ([6]; pH 5.1): +
5 days at 5° C. ([6]; pH 5.5): −
5 days at RT ([6]; pH 5.5): +
5 days at 5° C. ([6]; pH 6.2): −
5 days at RT ([6]; pH 6.2): +
5 days at 5° C. ([6]; pH 7.0): −
5 days at RT ([6]; pH 7.0): +
Conc. 2IB ([7]; 50 mM Citrate pH 3.0, final pH 3.07, room temperature): 11000 µg/mL and 11270 µg/mL
Conc. 2IB ([7]; 50 mM Citrate pH 3.5, final pH 3.52): 4450 µg/mL
Conc. 2IB ([7]; 50 mM Citrate pH 4.0, final pH 4.03): 1720 µg/mL
Conc. 2IB ([7]; 50 mM Citrate pH 4.5, final pH 4.54): 860 µg/mL
Conc. 2IB ([7]; 50 mM Citrate pH 5.0, final pH 5.02): 590 µg/mL
concentration of 2-IB ([8]; 0% cyclodextrin, Citrate pH 4.0, final pH 4.0): 1700 µg/mL
concentration of 2-IB ([8]; 0% cyclodextrin, Citrate pH 5.0, final pH 5.0): 600 µg/mL
concentration of 2-IB ([8]; 0% cyclodextrin, WFI, final pH 6.5): 400 µg/mL
concentration of 2-IB ([8]; 2.5% HP-CD, Citrate pH 4.0, final pH 4.2): 2500 µg/mL
concentration of 2-IB ([8]; 2.5% HP-CD, Citrate pH 5.0, final pH 5.1): 900 µg/mL
concentration of 2-IB ([8]; 2.5% HP-CD, WFI, final pH 6.5): 500 µg/mL
concentration of 2-IB ([8]; 2.5% SBE-CD, Citrate pH 4.0, final pH 4.3): 3700 µg/mL
concentration of 2-IB ([8]; 2.5% SBE-CD, Citrate pH 5.0, final pH 5.0): 1900 µg/mL
concentration of 2-IB ([8]; 2.5% SBE-CD, WFI, final pH 6.3): 700 µg/mL
